# How the values were obtained:
# [1] = Cytotoxicity against human EC17 cells at 0.18 to 18 uM incubated for 12 hrs; assay type: toxicity, cell-based; conditions: ec17, 12 h, dose 0.18-18 µM
# [2] = tested on: Trypanosoma cruzi; assay: Antitrypanosomal activity against Trypanosoma cruzi epimastigotes assessed as parasite growth inhibition measured after 24 hrs by CellTiter-glo luminescence assay; assay type: functional, organism-based
# [3] = Selectivity ratio of GI50 for cytotoxicity against rat 3Y1 cells to IC50 for antitrypanosomal activity against Trypanosoma cruzi epimastigotes; assay type: toxicity, cell-based
# [4] = tested on: Bacillus subtilis; assay: Antibacterial activity against Bacillus subtilis assessed as inhibition of bacterial growth incubated for 48 hrs by liquid microculture method; assay type: functional
# [5] = Cytotoxicity against rat 3Y1 cells assessed as cell growth inhibition incubated for 84 hrs by MTT assay; assay type: toxicity, cell-based
# [6] = Antimigratory activity against human EC17 cells assessed as inhibition of cell migration incubated for 12 hrs by microscopic analysis; assay type: functional, cell-based; conditions: EC17, 12 h
# [7] = tested on: Kocuria rhizophila; assay: Antibacterial activity against Kocuria rhizophila assessed as inhibition of bacterial growth incubated for 48 hrs by liquid microculture method; assay type: functional
Structure (SMILES),Activity [1],IC50 [2],selectivity ratio [3],MIC [4],GI50 at 84 h [5],IC50 [6],MIC [7]
C/C=C(\C)[C@@H](O)[C@H](C)[C@H](O)C/C=C(C)/C=C(\C)C/C(C)=C/C/C=C(\C)[C@@H](O)[C@@H](C)[C@H]1CC[C@H](CCC)C(=O)O1,Non-Toxic,6.4 µM,4.9,100 µg/mL,31 µM,11 µM,100 µg/mL
C/C=C(\C)[C@@H](O)[C@H](C)[C@H](O)C/C=C(C)/C=C(\C)C/C(C)=C/C/C=C(\C)[C@@H](O)[C@@H](C)[C@H]1CC[C@H](CCCC)C(=O)O1,Non-Toxic,12 µM,2.8,100 µg/mL,32 µM,15 µM,100 µg/mL
C/C=C(\C)[C@@H](O)[C@H](C)[C@H](O)C/C=C(C)/C=C(\C)C/C(C)=C/C/C=C(\C)[C@@H](O)[C@@H](C)[C@H]1CC[C@H](CC)C(=O)O1,Non-Toxic,18 µM,0.22,100 µg/mL,3.8 µM,8.3 µM,100 µg/mL
O=C(Cn1ccnc1[N+](=O)[O-])NCc1ccccc1 [BENZNIDAZOLE],–,16 µM,–,–,–,–,–
